Entries after “also recorded” stand apart in the source; their conditions may differ.
How the values were obtained:
[1] = test system: Human bone marrow cells from healthy volunteers; experiment: Human HSPC self renewal, methyl cellulose colony re-plating; type: cell-based; settings: colonies counted after eight days and re-plated until control HSPCs exhausted
Method: The human bone marrow cells from healthy volunteers were grown in methyl cellulose in the presence and absence of the compound 1-17 and colony number were counted after eight days in culture and re-plated till control HSPCs were completely exhausted. A. The number of colony and B. the total cellular output.
Human bone marrow cells from healthy volunteers were grown in methyl cellulose in the presence and absence of the compound 1-17 and colony number were counted after eight days in culture and re-plated till control HSPCs were completely exhausted.

[2] = test system: murine bone marrow cells from C57bl6 mice; experiment: Mouse HSPC self renewal, methyl cellulose colony re-plating; type: cell-based
Method: FIGS. 5A and 5B provide graphs showing Treatment of 1-17 to murine bone marrow expands the colony forming hematopoietic stem cells. The murine bone marrow cells from C57BL6 mice were grown in methyl cellulose in the presence and absence of the compound 1-17 and colony number were counted every week and re-plated. A. The number of colony and B. the total cellular output.
The murine bone marrow cells from C57bl6 mice were grown in methyl cellulose in the presence and absence of compound 1-17. Colony numbers were counted every week and re-plated.
FIG. 5 provides graphs showing that treatment with compound 1-17 increases mouse HSPC self-renewal. […] Additionally, as shown in FIG. 5B directed to total cellular output, cells also proliferate far longer than the vehicle control, maintaining population for an average of 1 to 2 passes after control.

[3] = test system: healthy murine bone marrow; experiment: Treatment of healthy mice, hematopoiesis; type: in vivo; settings: 40 mg/kg
Method: The effects of CD38 inhibitor 1-17 and its analogues on hematopoiesis of healthy murine bone marrow were tested. […] Experiments were conducted to determine whether treatment with compound 1-17 has impact on blood counts and NAD+ levels in cells. The inventors treated 9 mice which were sacrificed at 2, 5 and 12 week and blood counts, marrow morphology and cellularity and bone marrow colony formation per 10^6 cell were determined in colony forming assays.

[4] = test system: undifferentiated normal human fibroblast (NHFB); experiment: Cell proliferation assay, fibroblast life span; type: cell-based
Method: FIGS. 4A and 4B provide graphs showing NAD protection by compound 1-17 extend life span of undifferentiated normal human fibroblast (NHFB) under in-vitro cell culture conditions. NHFB were either A. young (<8 doubling time) or B. old (>10 doublings) cell cultures were treated with indicated amount of 1-17 in complete growth media.
NHFB were either young (<8 doubling time) (FIG. 4A) or old (>10 doublings) (FIG. 4B). Cell cultures were treated with the indicated amount of 1-17 in complete growth media.

[5] = test system: Total Human bone marrow, isolated CD34+ HSPCs, LTC-IC; experiment: Stem cell function, total cellular output in culture; type: cell-based
Method: Total Human bone marrow A, isolated CD34+ HSPCs B, and long-term culture initiating hematopoietic cells (LTC-IC) C, were grown in the presence and absence of the compound 1-17 and the total cellular output was determined. Compound 1-17 is synergistic with NAD treatment.
Total Human bone marrow, isolated CD34+ HSPCs, and long-term culture initiating hematopoietic cells (LTC-lC), were grown in the presence and absence of compound 1-17 and the total cellular output was determined.

[6] = biological target: T1, recombinant human CD38 full length protein (Homo sapiens, UniProt P28907); experiment: β-NAD+ degradation assay (HPLC, C18); type: biochemical; settings: purified full length wild type recombinant CD38 incubated with NAD+
T1 construct: The recombinant human CD38 full length protein UniProtKB - P28907 (CD38_HUMAN); His-tag (inferred from the pET28a vector and IMAC purification); made in house
T1 sequence (P28907 1-300): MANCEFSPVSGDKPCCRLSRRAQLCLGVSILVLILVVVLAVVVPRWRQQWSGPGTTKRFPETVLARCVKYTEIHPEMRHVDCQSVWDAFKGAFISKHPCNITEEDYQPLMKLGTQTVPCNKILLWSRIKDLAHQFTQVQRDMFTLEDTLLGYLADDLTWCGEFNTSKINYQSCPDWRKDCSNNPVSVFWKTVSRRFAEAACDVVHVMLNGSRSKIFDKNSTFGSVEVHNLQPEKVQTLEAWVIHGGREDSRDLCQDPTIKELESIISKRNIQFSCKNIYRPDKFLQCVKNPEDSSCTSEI
Method: FIGS. 3A-3D provides graphs showing Compound 1-17 inhibits CD38 and protects NAD degradation in vitro. Full length wild type recombinant CD38 was expressed and purified and incubated with NAD and high-performance liquid chromatographic assay using C18 were used to quantify NAD degradation. A. chromatogram with vehicle, B. CD38 incubation for 4 hours at room temperature C.
The recombinant human CD38 full length protein UniProtKB - P28907 (CD38_HUMAN) was cloned into pET28a and purified using IMAC column followed by gel filtration on SephacrylS200. The purified protein (10 µg/ml) was incubated with varying amount of NAD+ in assay buffer ([…], 5 mM MgCl2 at pH 7.0) at 25° C. for 3 hours, reaction was stopped by heat inactivation followed by acetone precipitation of protein the supernatant was vacuum dried and dissolved in water and loaded onto reverse phase C18 column and eluted with a gradient of 0-25% of acetonitrile in water.
Full length wild type recombinant CD38 was expressed and purified and incubated with NAD+ and high-performance liquid chromatographic assay using C18 were used to quantify NAD+ degradation.

Structure (SMILES)	colony forming hematopoietic stem and progenitor cells (HSPCs) [1]	self-renewal of HSPCs in colony numbers and overall cell counts ([2]; mouse bone marrow in methyl cellulose, counted every week and re-plated)	passes for which population is maintained after control ([2]; total cellular output, versus vehicle control) [passes]	efficacy and tolerability of treatment dose [3]	doubling time ([4]; NHFB treated with indicated amount of compound)	life span of NHFB in culture ([4]; young (<8 doubling time) or old (>10 doublings) NHFB, complete growth media)	combination with NAD treatment ([5]; cell culture, total cellular output)	long term hematopoietic stem cells, total cellular output ([5]; total human bone marrow, CD34+ HSPCs, LTC-IC in culture)	inhibition of CD38 NAD+ degradation [6]
O=C(Nc1cccc2cc(C(F)(F)F)ccc12)c1cc(CCCF)ccc1O [Compound 1-11]	expands the colony forming hematopoietic stem and progenitor cells (HSPCs)								
Cl.NCCc1ccc(O)c(C(=O)Nc2cccc3ccccc23)c1 [Compound 1-17, 5-(2-Aminoethyl)-2-hydroxy-N-(naphthalen-1-yl)benzamide]	expands the colony forming hematopoietic stem and progenitor cells (HSPCs)	markedly increased	1 to 2	effective and well tolerated	significantly increased in a dose dependent fashion	extends the life span	synergies with NAD treatment	expands long term hematopoietic stem cells in cell culture	inhibits CD38 and protects NAD+ degradation in vitro; also recorded: Dose dependent inhibition of CD38

Reference: US20230331663A1, “SMALL MOLECULE NICOTINAMIDE ADENINE DINUCLEOTIDE MODULATORS” (THE CLEVELAND CLINIC FOUNDATION, priority 2020, published 2023)
